The CheMixHub ionic liquid set

Experiment: xn = mol fraction of the nth substance listed
Conditions: 101 kPa, x2 = 0

CCCCCCCCCCCCOS(=O)(=O)[O-].[Na+] + Cc1ncc(C[n+]2csc(CCO)c2C)c(N)n1.Cl.[Cl-] + O
electrical conductivity [S/m]
Conditions	308.15 K	318.15 K
x1 = 7.35e-06	0.00521	0.0057
x1 = 1.463e-05	0.0087	0.00954
x1 = 2.184e-05	0.012	0.0133
x1 = 2.898e-05	0.0152	0.017
x1 = 3.604e-05	0.0186	0.0208
x1 = 4.303e-05	0.0219	0.0244
x1 = 4.997e-05	0.0251	0.0279
x1 = 5.683e-05	0.0283	0.0313
x1 = 6.362e-05	0.0315	0.0347
x1 = 7.036e-05	0.0345	0.0381
x1 = 7.703e-05	0.0375	0.0414
x1 = 8.364e-05	0.0405	0.0448
x1 = 9.018e-05	0.0432	0.0481
x1 = 9.658e-05	0.0461	0.0513
x1 = 0.0001031	0.0491	0.0543
x1 = 0.0001094	0.0517	0.0573
x1 = 0.0001157	0.0544	0.0602
x1 = 0.000122	0.0568	0.0632
x1 = 0.0001281	0.0602	0.0659
x1 = 0.0001342	0.0625	0.0687
x1 = 0.0001404	0.0647	0.0711
x1 = 0.0001465	0.0667	0.0734
x1 = 0.0001524	0.0685	0.0755
x1 = 0.0001584	0.0701	0.0774
x1 = 0.0001641	0.0716	0.079
x1 = 0.0001699	0.0729	0.0805
x1 = 0.0001757	0.0742	0.0819
x1 = 0.0001814	0.0753	0.0832
x1 = 0.000187	0.0764	0.0845
x1 = 0.0001928	0.0775	0.0857
x1 = 0.0001982	0.0785	0.0868
x1 = 0.0002038	0.0796	0.0879
x1 = 0.0002092	0.0805	0.089
x1 = 0.0002147	0.0815	0.0902
x1 = 0.00022	0.0824	0.0912
x1 = 0.0002254	0.0834	0.0924
x1 = 0.0002306	0.0843	0.0936
x1 = 0.0002358	0.0852	0.0946
x1 = 0.0002411	0.0861	0.0956
x1 = 0.0002463	0.087	0.0966
